# In patent publication US5554359A, “Pigmentation enhancer and method” (priority 1994, dated 1996):
# *1 amine or outer side, *2 acyl side, *3 side chain or, on linkers, in order; H or OH if unused. Where a SMILES comes first, the peptide text is derived from it. Bridges are numbered along the chain shown (N, C = ends). Roman numbers before positions name the chains, in order. [ ]: non-standard residue; d: D form. Actinocin(9to1) = Cc1c2oc3c(C)ccc(C(=O)[*:1])c3nc-2c(C(=O)[*:2])c(N)c1=O; NMeV = CN[C@H](C(=O)O)C(C)C; Sar = CNCC(=O)O
# How the values were obtained:
# Assay type in all cases: cell-based
# [1] = system: tyrosinase activity in MEL-11A cells; assay: Tyrosinase activity in melanotic mouse melanoma clone MEL-11A; conditions: MSH 10^-7 M or ammonium chloride 10 mM; 24 h; FIG. 4 bottom
# Method: (§1) The mouse melanoma cell lines used to study the effects of lysosomotropic agents herein were the Cloudman S91 cell line (ATCC no. CCL 53.1) and two subclones of this line developed in our laboratory, the amelanotic line, AM-7, and a melanotic line, MEL-11A. All melanoma cell lines were grown in Ham's F-10 nutrient medium supplemented with 10% horse serum, penicillin (100 units/ml), and streptomycin (100 μg/ml). The normal human melanocyte cell strains used in this study were derived from foreskins of either neonares or from boys 2-6 years old. Human melanocyte cultures were grown in Ham's F-10 nutrient medium supplemented with 10% horse serum, 5% fetal bovine serum (FBS), 32 nM TPA (12-O-tetradecanoylphorbol 13-acetate), 10^-4 M IBMX(3-isobutyl-1-methylxanthine), penicillin (100 units/ml), and streptomycin (100 μg/ml).
# (§2) To determine tyrosinase activity in situ in either melanoma cells or in human melanocyte cultures, the tyrosine hydroxylase activity of the enzyme was determined. […] Tyrosinase activity in cell homogenates was determined by sonicating cell pellets in 0.1-M sodium phosphate buffer (pH 6.8) and then incubating 50-μl aliquots in 0.5 ml of a reaction mixture containing 0.1-mM tyrosine, 2 μCi/ml of [^3 H]tyrosine, 0.1-mM L-DOPA (dihydroxyphenylalanine), and 0.1 mM PMSF (phenylmethylsulfonyl fluoride) at 37° C. for 2 hours. […]
# [2] = system: tyrosinase activity in human melanocytes; assay: Tyrosinase responses in human melanocytes (Table 6); conditions: Table 6 text
# Method: as §1
# (§3) To determine tyrosinase activity in situ in either melanoma cells or in human melanocyte cultures, the tyrosine hydroxylase activity of the enzyme was determined. Cells were seeded into 60-mm culture dishes at 2×10^5 cells/dish and allowed to attach overnight. The medium was then exchanged for the appropriate growth medium supplemented with 1 μCi/ml of [^3 H]tyrosine (L-ring-3,5-^3 H]-tyrosine, DuPont New England Nuclear), and with hormones, where indicated. Cells were grown in labeled medium for 24 hours, and at this time, the medium was removed and assayed for the presence of ^3 H2 O using the charcoal absorption method of Pomerantz. Tyrosinase activity in cell homogenates was determined by sonicating cell pellets in 0.1-M sodium phosphate buffer (pH 6.8) and then incubating 50-μl aliquots in 0.5 ml of a reaction mixture containing 0.1-mM tyrosine, 2 μCi/ml of [^3 H]tyrosine, 0.1-mM L-DOPA (dihydroxyphenylalanine), and 0.1 mM PMSF (phenylmethylsulfonyl fluoride) at 37° C. for 2 hours. Reactions were terminated by the addition of 1 ml of charcoal (10% w/v in 0.1-N HCl). Samples were centrifuged, and the supernatants removed for determination of the amount of ^3 H2 O produced.
# Hormone responsiveness in human melanocyte cell cultures were examined (for these studies, melanocytes derived from skin type III were used). […] Tyrosinase activity and melanin content typically double with a 48-hour exposure to IBMX. […] The steroid hormones, for the most part, caused little, if any, change in tyrosinase activity at the concentrations used.
# [3] = system: tyrosinase activity in mouse melanoma cells; assay: Tyrosinase responses in mouse melanoma cells (Table 6)
# Method: as §1
# as §3, with “produced. […]” for “produced.”
# [4] = system: tyrosinase activity in human melanocytes from white-skinned individuals; assay: Tyrosinase activity in human melanocytes from white skin
# Method: as §1, §3
# (§4) Dose/response parameters for ammonium chloride action were determined. […] Since tyrosinase is the rate-limiting enzyme for melanin synthesis, the stimulation of this enzyme by ammonium chloride should lead to increased melanin content of stimulated cells. […] Ammonium chloride increased tyrosinase activity in melanocytes from white-skinned individuals twenty-fold within 24 hours and by this time melanin contents had increased two-fold. Two other lysosomotropic agents, monensin and nigericin, were tested for their effects on tyrosinase activity. […] Thus, lysosomotropic agents have the ability to stimulate tyrosinase activity and melanin production in human melanocytes derived from white-skinned individuals, and to reduce melanin production in melanocytes from black-skinned people.
# [5] = system: tyrosinase activity in AM-7 cells; assay: Tyrosinase activity in amelanotic mouse melanoma clone AM-7
# Method: as §1, §2
# [6] = system: tyrosinase activity in human melanocytes from black individuals; assay: Tyrosinase activity in human melanocytes from black skin; conditions: 10 mM
# Method: as §1, with “Human melanocyte cultures were grown in Ham's F-10 nutrient medium supplemented with 10% horse serum, 5% fetal bovine serum (FBS), 32 nM TPA (12-O-tetradecanoylphorbol 13-acetate), 10^-4 M IBMX(3-isobutyl-1-methylxanthine), penicillin (100 units/ml), and streptomycin (100 μg/ml).” left out
# as §2
# Dose/response parameters for ammonium chloride action were determined. […]
# [7] = system: melanin in human melanocytes; assay: Melanin content in human melanocytes
# Method: as §1
# The amount of melanin in melanoma cells or in melanocytes was determined by incubating cell pellets in 2 ml of 1-N NaOH for 48 hours at 37° C. and then measuring the solubilized melanin at 400 nm.
# as §4
# [8] = system: tyrosinase activity in mouse melanoma cells; assay: Tyrosinase activity in Cloudman S91/mouse melanoma cells, earlier studies; conditions: MSH-stimulated tyrosinase activity
# Method: The MSH response in these cells can be mimicked by treatment of cells with either cAMP analogues such as dbcAMP (dibutyryl cyclic AMP) or 8-bromo cAMP, or with inhibitors of phosphodiesterase activity such as theophylline and IBMX. […] Although it is clear that cAMP is the second messenger for MSH action, tyrosinase activity is not altered by direct incubation with activated protein kinase A, nor is tyrosinase directly phosphorylated by this kinase. Even though cAMP levels rise within minutes of treatment of cells with MSH, no increases in tyrosinase activity are detectable until 6-9 hours after exposure of cells to hormone. […] In an effort to further delineate the cellular pathways involved in the MSH stimulation of tyrosinase activity, we examined the transcriptional and translational requirements for MSH action. […] However, other studies have shown that tyrosinase may be activated in melanoma cells treated with MSH. Discussed herein are studies carried out to examine the contributions of induction and activation to the overall MSH stimulation of tyrosinase activity in melanoma cells. Further, studies on the regulation of tyrosinase in normal human melanocytes are also described and compared to those from melanoma cells.
# Even more elaborate models involving an activation of tyrosinase via internalized MSH receptors have been proposed. Evidence for tyrosinase inhibitors in mouse melanocytes and melanoma has been reported by many investigators, but no such molecules have yet been isolated.
# [9] = within 24 hours, white-skinned individuals
compound,measurement,setting,value
"Cl.N [Ammonium chloride, ammonium chloride]",increase in tyrosinase activity,[1],four-fold increase
same,tyrosinase activity in human melanocytes,[2],stimulates tyrosinase activity
same,"Effect on Tyrosinase Activity, Mouse Melanoma","[3]; Table 6, 10^-7 M except IBMX 10^-4 M, theophylline 1 mM, ammonium chloride 10 mM, A23187 not given",++ (>300%)
same,tyrosinase activity in mouse melanoma cells,[3]; Table 6 text,stimulates tyrosinase activity
same,Tyrosinase Activity,"[4]; 10 mM, 48 hours, cell strain #84W, FIG. 5",markedly elevated
same,tyrosinase activity in melanocytes derived from white skin,"[4]; 10 mM, footnote c of Table 6",stimulates tyrosinase activity
same,concentration of maximal stimulation of tyrosinase activity,"[4]; cell strain 69W, 48 hours, FIG. 6",7.5 mM
same,stimulation of tyrosinase activity,"[4]; cell strain 69W, up to four hours, FIG. 8",effective in stimulating tyrosinase activity
same,increase in tyrosinase activity,[4]; [9],twenty-fold
same,stimulation of tyrosinase activity in presence of cycloheximide,"[5]; 10 mM ammonium chloride with or without cycloheximide, data not shown",stimulation occurred in cells treated with or without cycloheximide
same,increase in tyrosinase activity,"[5]; 10 mM ammonium chloride, 24 h, FIG. 4 top",two-fold increase
same,Tyrosinase Activity,"[6]; 48 hours, cell strain #90A6, FIG. 5",depressed
same,tyrosinase activity in highly melanized melanocytes,"[6]; black skin types, footnote c of Table 6",markedly inhibite
same,melanin versus untreated cells,"[7]; 10 mM, 3 days, cell strain 69W, FIG. 7",twice as much melanin than untreated cells
same,increase in melanin contents,[7]; [9],two-fold
"Cc1c2oc3c(C)ccc(C(=O)N[C@@H]4C(=O)N[C@H](C(C)C)C(=O)N5CCC[C@H]5C(=O)N(C)CC(=O)N(C)[C@@H](C(C)C)C(=O)O[C@@H]4C)c3nc-2c(C(=O)N[C@@H]2C(=O)N[C@H](C(C)C)C(=O)N3CCC[C@H]3C(=O)N(C)CC(=O)N(C)[C@@H](C(C)C)C(=O)O[C@@H]2C)c(N)c1=O [actinomycin D] (I: T[dV]P[Sar][NMeV] / II: T[dV]P[Sar][NMeV]; ester I:1-I:C, II:1-II:C; linker I:N-II:N via Actinocin(9to1))",hormonal induction of enzyme activity,[8],completely blocked
C[C@@H]1C[C@@H]([C@H](O)CC2CC(=O)NC(=O)C2)C(=O)[C@@H](C)C1 [cycloheximide],hormonal induction of enzyme activity,[8],completely blocked
α-amanitin,hormonal induction of enzyme activity,[8],completely blocked
